{"source": "patent US20240216356A1", "about": "“TASTE MASKED COMPOSTIONS OF 2,4,6-TRIFLUORO-N-[6-(1-METHYL-PIPERIDINE-4-CARBONYL)-PYRIDIN-2-YL]-BENZAMIDE HEMISUCCINATE, AND ORALLY DISENTEGRATING TABLET COMPRISING THE SAME” (priority 2021, published 2024)", "key": {"[1]": {"assay": "Solubility of lasmiditan over the pH range of the oral cavity", "assay_type": "physicochemical", "description": "Lasmiditan is highly soluble (dissolves readily in the mouth) but extremely bitter in taste, and has other negative sensory attributes, that preclude conventional ODT development. […] The efficacious dose is from 25 to 200 mg depending on patient weight or other factors. […] Extreme bitterness, mouth numbing, and other negative sensory attributes are present and persist for 30 minutes."}, "[2]": {"settings": "current marketed immediate release tablets; cited from earlier work"}}}
{"smiles": "CN1CCC(C(=O)c2cccc(NC(=O)c3c(F)cc(F)cc3F)n2)CC1", "note": "[Lasmiditan, 2,4,6-trifluoro-N-[6-(1-methyl-piperidin-4-ylcarbonyl)-pyridin-2-yl]-benzamide]", "values": [{"measurement": "solubility", "setting": "[1]; pH 5, aqueous buffer", "value": 35, "unit": "mg/mL"}, {"measurement": "solubility", "setting": "[1]; pH 6.8, aqueous buffer", "value": 9.8, "unit": "mg/mL"}, {"measurement": "onset of action (time to symptom relief)", "setting": "[2]", "value": "about 2 hours"}]}
